US11033538B2, “Dosing regimens for the treatment of lysosomal storage diseases using pharmacological chaperones” (Amicus Therapeutics, Inc., priority 2007, dated 2021)
Read-outs that look alike come from different tables or passages of the source. Marks after values point to notes of the source that are not given here.

Assays:
GL-3 [1] = experiment: Example 11, immunohistochemical staining of GL-3 in hR301Q GLA Tg/KO mice; type: in vivo
Experimental: Immunohistochemical staining with a monoclonal anti-GL-3 antibody (nuclei counterstained with methyl green) was also performed. […] Data shown are representative pictures from 7-8 mice/group.

[2] = test system: patients with Fabry disease; experiment: Example 15, safety analysis and adverse events; type: in vivo, human
Description: Randomized patients receiving ≥1 dose were included in the safety analysis, which comprised vital signs, physical exams, electrocardiograms, clinical labs, and adverse events.

GL-3 [3] = experiment: Example 15, kidney interstitial capillary GL-3 inclusions; type: in vivo, human
Description: The tertiary objectives were cardiac function, patient-reported outcomes, exploratory kidney analyses, and white blood cell α-galactosidase activity. Study completers were eligible to enroll in the open-label study—AT1001-041/NCT01458119—for up to 5 years.
Each patient underwent a baseline kidney biopsy, as well as repeat kidney biopsies at 6 and 12 months. The number of GL-3 inclusions per kidney interstitial capillary per patient at baseline, and at 6 and 12 months was quantitatively assessed in 300 capillaries by 3 independent pathologists blinded to treatment and visit. All values for each individual biopsy at a given time were averaged prior to statistical analysis.
Two other Stage 1 endpoints were assessed (modified-ITT population: randomized patients with paired baseline and month 6 biopsies; n=60): percent change in GL-3 inclusions per interstitial capillary, and percent of interstitial capillaries with zero GL-3 inclusions.

Fabry patients = experiment: Example 6, self-reported Fabry symptoms; type: in vivo, human
Description: Patients self-reported changes in symptoms at the end of 12 or 24 week treatment period to evaluate, inter alia, reduction in acroparaesthesia. This may be evidence of clearance of GL-3 in the microvasculature of peripheral nerve cells.

GL-3 [4] = experiment: Example 15, 24-hour urine GL-3; type: in vivo, human
Experimental: Plasma lyso-Gb3 and 24-hour urine GL-3 were analyzed by liquid chromatography-mass-spectroscopy using a novel stable isotope-labeled internal standard, 13C6-lyso-Gb3 (lower-limit-of-quantification: 0.200 ng/mL, 0.254 nmol/L).

α-GAL [5] = type: in vivo, human; conditions: first eleven patients treated at least 12 weeks; two regimens
Experimental: Eight patients in the study received an ascending dose of 25, 100, and then 250 mg b.i.d. over 6 weeks, followed by 50 mg/day for the remainder of the study.
For purposes of calculating the percentage of normal in the table, the level of α-GAL that is normal was derived by using the average of the levels of α-GAL in white blood cells of 15 healthy volunteers from the multiple-dose Phase I study.

[6] = test system: patients with Fabry disease; experiment: Example 15, Gastrointestinal Symptoms Rating Scale; type: in vivo, human
Experimental: Patient-reported outcomes were assessed using the Gastrointestinal-Symptoms-Rating-Scale (GSRS), Short Form-36v2TM and Brief-Pain-Inventory-Pain-Severity-Component.

α-GAL [7] = type: in vivo, human
Experimental: (§1) Four male patients received a single 150 mg Q.O.D for 12 weeks (Group B); while five male patients received 150 mg Q.O.D. for 24 weeks (Group C). Finally nine female patients were randomized to receive one of three dosages: 50, 150 or 250 mg Q.O.D for 12 weeks (Group D) (FIG. 8).
Enzymatic activity of α-Gal in leukocytes (white blood cells; WBCs) of the patients was measured as a percentage of the average α-Gal activity in white blood cells of 15 healthy volunteers. α-GAL activity was assessed in fractionated tissue obtained from biopsies, and in blood leukocytes and plasma (from blood collected at baseline and every month).

GL-3 [8] = experiment: Example 6, urinalysis of GL-3; type: in vivo, human
Experimental: as §1
Urine was analysed at baseline and periodically every 2-6 weeks for GL-3.

[9] = open-label-extension, 6/57 patients
[10] = All Patients, OLE DGJ treatment, (95% CI)
[11] = Patients with Symptoms at BL, OLE DGJ treatment, (95% CI)
[12] = Patients with Symptoms at BL, Stage 1

## OC[C@H]1NC[C@H](O)[C@@H](O)[C@H]1O [DGJ, (2R,3S,4R,5S)-2-(hydroxymethyl) piperdine-3,4,5-triol]
GL-3 [1]; 300 mg/kg, 4 weeks
  GL-3 signal, less frequent vs daily dosing: greater GL-3 reduction was seen in each tissue
GL-3 [1]; both daily and less frequent treatment, skin, heart, kidney
  GL-3 signal by immunohistochemistry: reduced the amount and intensity of GL-3 signal in each tissue
[2]; Stage 1, DGJ arm
  patients with serious adverse events: 2 patients
[2]; Stage 1, DGJ, 6/34 patients
  nasopharyngitis frequency: 18%
[2]; Stage 1, DGJ, 12/34 patients
  headache frequency: 35%
[2]; Stage 2, 7/63 patients, related to kidney biopsies
  procedural pain frequency: 11%
[2]; Stage 2, 9/63 patients
  headache frequency: 14%
[2]; fatigue and paresthesia, same patient, months 12-24, resolved
  serious adverse events possibly related to DGJ: Two serious adverse events were assessed as possibly related to DGJ
[2]; in vivo
  deaths: No deaths were reported
  discontinuation due to adverse events: No adverse events led to DGJ discontinuation
  severity of adverse events: Most adverse events were mild or moderate in severity
  vital sign, physical findings, laboratory and ECG parameters: did not reveal any clinically relevant effect of DGJ
[2]; [9]
  bronchitis frequency: 11%
  headache frequency: 11%
[2]; open-label-extension, 9/57 patients
  proteinuria frequency: 16%
[2]; patients with baseline proteinuria <300 mg/24-h
  patients whose 24-hour urine protein remained stable during DGJ treatment: 23/28
GL-3 [3]; 6 months of DGJ, mITT-suitable, p=0.008 vs placebo
  reduction in interstitial capillary GL-3 (±SEM): −0.250±0.103
GL-3 [3]; 6 months, ITT, 150 mg DGJ HCl every other day, 13 of 32, p=0.30 vs placebo
  patients achieving a response (>50% reduction in GL-3 inclusions per interstitial capillary): 41%
GL-3 [3]; 6 months, p=0.097 vs placebo
  median change in interstitial capillary GL-3 from baseline: −40.8%
GL-3 [3]; 6 months, vs placebo, p=0.042
  mean difference for the change in % of interstitial capillaries with zero GL-3 inclusions, in favor of DGJ: 7.3%
GL-3 [3]; additional 6 months of treatment
  interstitial capillary GL-3 reduction after additional treatment: remained stable
GL-3 [3]; at 12 months, patients switching from placebo to DGJ at 6 months, p=0.014
  reduction in interstitial capillary GL-3 (±SEM): −0.330±0.152
GL-3 [3]; patients with mutant α-galactosidase not suitable for DGJ therapy
  treatment effect in interstitial capillary GL-3: did not show any treatment effect in interstitial capillary GL-3
Fabry patients; four female expected good responders
  self-reported symptoms: decreases in pain
Fabry patients; seven male good responders
  self-reported symptoms: improved gastrointestinal function and a decrease in pain
GL-3 [4]; baseline to month 6, suitable mutants, p=0.44 vs placebo
  mean change in 24-hour urine GL-3 substrate (±SEM) concentration: −361±169 ng/mg creatinine
GL-3 [4]; month 6, suitable mutants
  24-hour urine GL-3 substrate (±SEM) concentration reached: 555±151 ng/mg creatinine
α-GAL [5]
  patients with an increase in α-GAL activity: 10 of the 11
[6]; All Patients, ITT-suitable, Stage 1 double-blind, p = 0.03
  GSRS Diarrhea, change from Baseline to Month 6: −0.3*^2
[6]; [10]
  GSRS Abdominal Pain, change to Month 24: −0.2 (−0.5, +0.1)
  GSRS Constipation, change to Month 24: −0.4 (−0.7, +0.0)*^5
  GSRS Diarrhea, change from Baseline (DGJ) or Month 6 (Placebo) to Month 24: −0.5 (−0.9, −0.1)*^4
  GSRS Indigestion, change to Month 24: −0.4 (−0.7, −0.04)*^4
  GSRS Reflux, change to Month 24: −0.2 (−0.5, 0.2)
[6]; All Patients, Stage 1
  GSRS Abdominal Pain, change from Baseline to Month 6: 0.0
  GSRS Constipation, change from Baseline to Month 6: +0.1
  GSRS Indigestion, change from Baseline to Month 6: −0.1
  GSRS Reflux, change from Baseline to Month 6: −0.1
[6]; [11]
  GSRS Abdominal Pain, change to Month 24: −0.2 (−0.6, 0.1)
  GSRS Constipation, change to Month 24: −0.5 (−1.1, +0.0)*^5
  GSRS Diarrhea, change to Month 24: −1.0 (−1.5, −0.4)*^4
  GSRS Indigestion, change to Month 24: −0.5 (−0.8, −0.06)*^4
  GSRS Reflux, change to Month 24: −0.6 (−1.5, 0.2)
[6]; [12]
  GSRS Abdominal Pain, change from Baseline to Month 6: −0.1
  GSRS Constipation, change from Baseline to Month 6: +0.2
  GSRS Diarrhea, change from Baseline to Month 6: −0.6
  GSRS Indigestion, change from Baseline to Month 6: −0.2
[6]; Patients with Symptoms at BL, Stage 1, p = 0.047
  GSRS Reflux, change from Baseline to Month 6: −0.6*^3
α-GAL [7]; eleven good responders, male, pre vs post treatment
  mean increase in WBC α-Gal activity: 630%
α-GAL [7]; four moderate responders, male
  mean increase in leukocyte α-Gal activity: 170%
α-GAL [7]; male patients, Groups A-C
  number of good responders (α-Gal activity): eleven
  number of moderate responders (α-Gal activity): four
  number of non responders (α-Gal activity): two
α-GAL [7]; nine female patients, Group D (50, 150 or 250 mg Q.O.D, 12 weeks)
  mean increase in WBC α-Gal activity compared to baseline: 146%
α-GAL [7]; non responders, male
  leukocyte or kidney α-Gal activity: None of the “non” responders exhibited any overall increase
α-GAL [7]; one moderate responder, male
  mean increase in kidney α-Gal activity: 100%
α-GAL [7]; six of the good responders, male
  mean increase in kidney α-Gal activity: 1090%
GL-3 [8]; female
  expected good responders with urine GL-3 decrease greater than 10%: 3 of the 5
GL-3 [8]; female expected good responders
  mean decrease in urine GL-3 levels: 20%
GL-3 [8]; male good responders
  good responders with urine GL-3 decrease greater than 10%: eight of the eleven
  mean decrease in urine GL-3 levels: 38%
GL-3 [8]; male moderate and non responders
  urine GL-3 following treatment: overall increases in urine GL-3
